Where two headings read alike, the source gives them in different places.
Legend:
Type in all cases: in vivo
[1] = system: winter wheat (Triticum aestivum); assay: Test C pre-/postemergence: winter wheat
Description: (§1) Seeds of plant species selected from blackgrass (Alopecurus myosuroides), bromegrass, downy (downy bromegrass, Bromus tectorum), foxtail, green (green foxtail, Setaria viridis), ryegrass, Italian (Italian ryegrass, Lolium multiflorum), winter wheat (Triticum aestivum), wild oat (Avena fatua), galium (catchweed bedstraw, Galium aparine), bermudagrass (Cynodon dactylon), surinam grass (Brachiaria decumbens), cocklebur (common cocklebur, Xanthium strumarium), corn (Zea mays), large crabgrass (Digitaria sanguinalis), woolly cupgrass (Eriochloa villosa), foxtail, giant (giant foxtail, Setaria faberii), goosegrass (Eleusine indica), johnsongrass (Sorghum halepense), kochia (Kochia scoparia), lambsquarters (Chenopodium album), morningglory (Ipomoea coccinea), nightshade (eastern black nightshade, Solanum ptycanthum), nutsedge, yellow (yellow nutsedge, Cyperus esculentus), pigweed (Amaranthus retroflexus), ragweed (common ragweed, Ambrosia elation), soybean (Glycine max), common (oilseed) sunflower (Helianthus annuus), Russian thistle (Salsola kali) and velvetleaf (Abutilon theophrasti) were planted into a blend of loam soil and sand and treated preemergence with test chemicals formulated in a non-phytotoxic solvent mixture which included a surfactant.
(§2) At the same time, plants selected from these crop and weed species and also barley (winter barley, Hordeum vulgare), canarygrass (Phalaris minor), chickweed (common chickweed, Stellaria media) windgrass (Apera spica-venti) and deadnettle (henbit deadnettle, Lamium amplexicaule) were planted in pots containing Redi-Earth® planting medium (Scotts Company, 14111 Scottslawn Road, Marysville, Ohio 43041) comprising spaghnum peat moss, vermiculite, wetting agent and starter nutrients and treated with postemergence applications of test chemicals formulated in the same manner. Plants ranged in height from 2 to 18 cm (1- to 4-leaf stage) for postemergence treatments.
(§3) Treated plants and controls were maintained in a greenhouse for 13 to 15 days, after which time all species were compared to controls and visually evaluated. Plant response ratings, summarized in Table C, are based on a scale of 0 to 100 where 0 is no effect and 100 is complete control. A dash (-) response means no test result.

[2] = system: soybean (Glycine max); assay: Test C pre-/postemergence: soybean; conditions: Postemergence
Description: as §1, §2, §3

[3] = system: pigweed (Amaranthus retroflexus); assay: Test A pre-/postemergence: pigweed; conditions: Amaranthus retroflexus, 240 h; for pest or weed control at 125 g/ha: 125 g ai/ha; for pest or weed control at 500 g/ha: 500 g ai/ha
How it was run: (§4)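 Pre: directed soil spray after planting in loam + sand. Post: same formulation (non-phytotoxic solvent + surfactant) on 1–2-leaf plants, 2–10 cm. Greenhouse ~10 d; visual injury 0–100 vs untreated.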

[4] = system: barnyardgrass (Echinochloa crus-galli); assay: Test A pre-/postemergence: barnyardgrass; conditions: Echinochloa crus-galli, 240 h; for pest or weed control at 125 g/ha: 125 g ai/ha; for pest or weed control at 500 g/ha: 500 g ai/ha
How it was run: as §4

[5] = system: wheat (Triticum aestivum); assay: Test A pre-/postemergence: wheat; conditions: Triticum aestivum, 240 h; for plant injury at 125 g/ha: 125 g ai/ha; for plant injury at 500 g/ha: 500 g ai/ha
How it was run: as §4

[6] = system: crabgrass, large (large crabgrass, Digitaria sanguinalis); assay: Test A pre-/postemergence: crabgrass, large; conditions: Digitaria sanguinalis, 240 h; for pest or weed control at 125 g/ha: 125 g ai/ha; for pest or weed control at 500 g/ha: 500 g ai/ha
How it was run: as §4

[7] = system: ryegrass, Italian (Italian ryegrass, Lolium multiflorum); assay: Test C pre-/postemergence: ryegrass, Italian
Description: as §1, §2, §3

[8] = system: corn (Zea mays); assay: Test A pre-/postemergence: corn; conditions: Zea mays, 240 h
How it was run: as §4

[9] = system: lambsquarters (Chenopodium album); assay: Test C pre-/postemergence: lambsquarters; conditions: Postemergence
Description: as §1, §2, §3

[10] = system: nutsedge, yellow (yellow nutsedge, Cyperus esculentus); assay: Test C pre-/postemergence: nutsedge, yellow; conditions: Postemergence
Description: as §1, §2, §3

[11] = system: foxtail, giant (giant foxtail, Setaria faberii); assay: Test C pre-/postemergence: foxtail, giant; conditions: Postemergence
Description: as §1, §2, §3

[12] = Postemergence, 31 g ai/ha, scale 0 to 100 (0 no effect, 100 complete control)
[13] = Postemergence, 62 g ai/ha, scale 0 to 100 (0 no effect, 100 complete control)
[14] = Postemergence, 125 g ai/ha, scale 0 to 100, 0 no effect, 100 complete control
[15] = Postemergence, 250 g ai/ha, scale 0 to 100
[16] = Preemergence, 31 g ai/ha, scale of 0 to 100, 0 is no effect, 100 is complete control
[17] = Preemergence, 62 g ai/ha, scale of 0 to 100, 0 is no effect, 100 is complete control
[18] = Preemergence, 125 g ai/ha, scale 0 to 100, 0 no effect, 100 complete control
[19] = Preemergence, 250 g ai/ha, scale 0 to 100, 0 no effect, 100 complete control
[20] = 31 g ai/ha, scale 0 to 100 (0 no effect, 100 complete control)
[21] = 62 g ai/ha, scale 0 to 100 (0 no effect, 100 complete control)
[22] = 125 g ai/ha, scale 0 to 100, 0 no effect, 100 complete control

Cc1nn(-c2ccc(F)cc2)nc1Cc1ccnc(C(F)(F)F)c1 [Compound 16, 4-[[2-(4-fluorophenyl)-5-methyl-2H-1,2,3-triazol-4-yl]methyl]-2-(trifluoromethyl)pyridine]
Plant response rating, Wheat [1, 12]: 5 | Plant response rating, Wheat [1, 13]: 20 | Plant response rating, Wheat [1, 14]: 25 | Plant response rating, Wheat [1, 15]: 30 | Plant response rating, Wheat [1, 16]: 0 | Plant response rating, Wheat [1, 17]: 5 | Plant response rating, Wheat [1, 18]: 15 | Plant response rating, Wheat [1, 19]: 45 | Plant response rating, Soybean [2, 20]: 20 | Plant response rating, Soybean [2, 21]: 25 | Plant response rating, Soybean [2, 22]: 35 | Plant response rating, Soybean ([2]; 250 g ai/ha, scale 0 to 100): 35 | pest or weed control at 125 g/ha ([3]; post-emergence, Postemergence, 0 to 100 scale, 0 is no effect, 100 is complete control, read-out: Pigweed plant response rating): 100% | pest or weed control at 500 g/ha ([3]; post-emergence, Postemergence, visual rating on 0 to 100 scale (0 no effect, 100 complete control), approximately ten days, read-out: Pigweed plant response rating): 100% | pest or weed control at 125 g/ha ([3]; pre-emergence, Preemergence, 0 to 100 scale (0 no effect, 100 complete control), read-out: Plant response rating, Pigweed): 90% | pest or weed control at 500 g/ha ([3]; pre-emergence, Preemergence, 0 to 100 scale, 0 is no effect, 100 is complete control, read-out: Plant response rating, Pigweed): 100% | pest or weed control at 125 g/ha ([4]; post-emergence, Postemergence, 0 to 100 scale, 0 is no effect, 100 is complete control, read-out: Barnyardgrass plant response rating): 90% | pest or weed control at 500 g/ha ([4]; post-emergence, Postemergence, visual rating on 0 to 100 scale (0 no effect, 100 complete control), approximately ten days, read-out: Barnyardgrass plant response rating): 100% | pest or weed control at 125 g/ha ([4]; pre-emergence, Preemergence, 0 to 100 scale (0 no effect, 100 complete control), read-out: Plant response rating, Barnyardgrass): 90% | pest or weed control at 500 g/ha ([4]; pre-emergence, Preemergence, 0 to 100 scale, 0 is no effect, 100 is complete control, read-out: Plant response rating, Barnyardgrass): 100% | plant injury at 125 g/ha ([5]; post-emergence, Postemergence, 0 to 100 scale, 0 is no effect, 100 is complete control, read-out: Wheat plant response rating): 20% | plant injury at 500 g/ha ([5]; post-emergence, Postemergence, visual rating on 0 to 100 scale (0 no effect, 100 complete control), approximately ten days, read-out: Wheat plant response rating): 30% | plant injury at 125 g/ha ([5]; pre-emergence, Preemergence, 0 to 100 scale (0 no effect, 100 complete control), read-out: Plant response rating, Wheat): 10% | plant injury at 500 g/ha ([5]; pre-emergence, Preemergence, 0 to 100 scale, 0 is no effect, 100 is complete control, read-out: Plant response rating, Wheat): 20% | pest or weed control at 125 g/ha ([6]; post-emergence, Postemergence, 0 to 100 scale, 0 is no effect, 100 is complete control, read-out: Crabgrass, Large plant response rating): 90% | pest or weed control at 500 g/ha ([6]; post-emergence, Postemergence, visual rating on 0 to 100 scale (0 no effect, 100 complete control), approximately ten days, read-out: Crabgrass, Large plant response rating): 90% | pest or weed control at 125 g/ha ([6]; pre-emergence, Preemergence, 0 to 100 scale (0 no effect, 100 complete control), read-out: Plant response rating, Crabgrass, Large): 90% | pest or weed control at 500 g/ha ([6]; pre-emergence, Preemergence, 0 to 100 scale, 0 is no effect, 100 is complete control, read-out: Plant response rating, Crabgrass, Large): 100% | Plant response rating, Ryegrass, Italian [7, 12]: 10 | Plant response rating, Ryegrass, Italian [7, 13]: 10 | Plant response rating, Ryegrass, Italian [7, 14]: 20 | Plant response rating, Ryegrass, Italian [7, 15]: 20 | Plant response rating, Ryegrass, Italian [7, 16]: 5 | Plant response rating, Ryegrass, Italian [7, 17]: 95 | Plant response rating, Ryegrass, Italian [7, 18]: 100 | Plant response rating, Ryegrass, Italian [7, 19]: 100 | plant injury at 125 g/ha ([8]; post-emergence, Postemergence, 125 g ai/ha, 0 to 100 scale, 0 is no effect, 100 is complete control, read-out: Corn plant response rating): 30% | plant injury at 500 g/ha ([8]; post-emergence, Postemergence, 500 g ai/ha, visual rating on 0 to 100 scale (0 no effect, 100 complete control), approximately ten days, read-out: Corn plant response rating): 50% | Corn plant response rating (crop injury, 0 = no effect, 100 = complete kill) at 125 g/ha ([8]; pre-emergence, Preemergence, 125 g ai/ha, 0 to 100 scale (0 no effect, 100 complete control)): 10% | Corn plant response rating (crop injury, 0 = no effect, 100 = complete kill) at 500 g/ha ([8]; pre-emergence, Preemergence, 500 g ai/ha, 0 to 100 scale, 0 is no effect, 100 is complete control): 20% | Plant response rating, Lambsquarters [9, 20]: 95 | Plant response rating, Lambsquarters [9, 21]: 100 | Plant response rating, Lambsquarters [9, 22]: 100 | Plant response rating, Lambsquarters ([9]; 250 g ai/ha, scale 0 to 100): 100 | Plant response rating, Nutsedge, Yellow [10, 20]: 0 | Plant response rating, Nutsedge, Yellow [10, 21]: 0 | Plant response rating, Nutsedge, Yellow [10, 22]: 0 | Plant response rating, Nutsedge, Yellow ([10]; 250 g ai/ha, scale 0 to 100): 0 | Plant response rating, Foxtail, Giant [11, 20]: 40 | Plant response rating, Foxtail, Giant [11, 21]: 40 | Plant response rating, Foxtail, Giant [11, 22]: 50 | Plant response rating, Foxtail, Giant ([11]; 250 g ai/ha, scale 0 to 100): 50
